From patent US8834862B2, “Methods, compositions and devices utilizing stinging cells/capsules for conditioning a tissue prior to delivery of an active agent” (NanoCyte Inc., priority 2005, dated 2014)

Test system: blood glucose
Assay: Insulin delivery by aiptasia stinging capsule gel, blood glucose in nude mice
Type: in vivo
Conditions: topical aiptasia stinging capsule gel plus Humolin, blood glucose at 0, 30, 60 and 90 minutes after gel activation, FIG. 3
Experimental: The potential of the stinging capsule patch to deliver an agent (insulin) into the blood stream was tested with aiptasia capsules.
Materials—Commercial Insulin—Humolin of EliLilly was tested. Unless otherwise noted, all chemicals were purchased from Sigma (Aldrich).
Animals—6-9 week old nude mice each weighing 20-30 gr were used.
Insulin Delivery—Mice were topically applied with the aiptasia stinging capsule gel and Humolin. A few microlitres of blood were drawn from the tail tip prior to insulin application (time 0) and thirty minutes, sixty minutes and ninety minutes following gel activation. Blood glucose concentration was measured using a human glucometer.
In parallel, and as a positive control, mice were subcutaneously injected with Humolin.

Substance: insulin
- insulin delivery / blood glucose regulation compared with subcutaneous injection: in a similar manner as subcutaneous injection
